One assay addresses T1, RARγ (Homo sapiens, UniProt P13631).
T1 sequence (P13631 1-454): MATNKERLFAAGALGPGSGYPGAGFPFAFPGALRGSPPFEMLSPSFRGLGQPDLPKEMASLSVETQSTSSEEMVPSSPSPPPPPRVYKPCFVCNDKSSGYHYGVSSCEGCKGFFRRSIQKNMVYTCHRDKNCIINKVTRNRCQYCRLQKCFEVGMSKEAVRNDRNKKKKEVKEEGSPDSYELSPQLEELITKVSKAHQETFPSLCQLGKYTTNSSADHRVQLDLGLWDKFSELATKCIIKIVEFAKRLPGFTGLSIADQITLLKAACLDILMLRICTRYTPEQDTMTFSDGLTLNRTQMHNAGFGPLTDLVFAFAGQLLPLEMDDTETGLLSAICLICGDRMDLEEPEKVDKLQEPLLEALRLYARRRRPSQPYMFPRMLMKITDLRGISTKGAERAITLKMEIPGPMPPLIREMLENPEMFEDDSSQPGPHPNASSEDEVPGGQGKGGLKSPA
Briefly: ligand binding assay, RARγ. The conditions noted are these: Kd line of EC50/(EFFICACY)/Kd, read-out: RAR Kd γ. The text has this:
(§1) Assays described below measure the ability of a compound to bind to, and/or activate various retinoid receptor subtypes. When in these assays a compound binds to a given receptor subtype and activates the transcription of a reporter gene through that subtype, then the compound is considered an agonist of that receptor subtype. […] In the below described assays the ability of the compounds to bind to RARα, RARβ, RARγ, RXRα, RXRβ and RXRγ receptors, and the ability or inability of the compounds to activate transcription of a reporter gene through these receptor subtypes can be tested.
(§2) A holoreceptor transactivation assay and a ligand binding assay which measure the antagonist/agonist like activity of the compounds of the invention, or their ability to bind to the several retinoid receptor subtypes, respectively, are described in published PCT Application No. WO WO93/11755 (particularly on pages 30-33 and 37-41) published on Jun. 24, 1993, the specification of which is also incorporated herein by reference. A detailed experimental procedure for holoreceptor transactivations has been described by Heyman et al. Cell 68, 397-406, (1992); Allegretto et al. J. Biol. Chem. 268, 26625-26633, and Mangelsdorf et al. The Retinoids: Biology, Chemistry and Medicine, pp 319-349, Raven Press Ltd., New York, which are expressly incorporated herein by reference. The results obtained in this assay are expressed in EC50 numbers, as they are also in the chimeric receptor transactivation assay. The results of ligand binding assay are expressed in Kd numbers. (See Cheng et al. Biochemical Pharmacology Vol. 22 pp 3099-3108, expressly incorporated herein by reference.)
(§3) The results if the ligand binding assay for several preferred compounds of the invention are included in Table 1.

For the next assay, the target named is T2, RARβ (Homo sapiens, UniProt P10826).
T2 sequence (P10826 1-455): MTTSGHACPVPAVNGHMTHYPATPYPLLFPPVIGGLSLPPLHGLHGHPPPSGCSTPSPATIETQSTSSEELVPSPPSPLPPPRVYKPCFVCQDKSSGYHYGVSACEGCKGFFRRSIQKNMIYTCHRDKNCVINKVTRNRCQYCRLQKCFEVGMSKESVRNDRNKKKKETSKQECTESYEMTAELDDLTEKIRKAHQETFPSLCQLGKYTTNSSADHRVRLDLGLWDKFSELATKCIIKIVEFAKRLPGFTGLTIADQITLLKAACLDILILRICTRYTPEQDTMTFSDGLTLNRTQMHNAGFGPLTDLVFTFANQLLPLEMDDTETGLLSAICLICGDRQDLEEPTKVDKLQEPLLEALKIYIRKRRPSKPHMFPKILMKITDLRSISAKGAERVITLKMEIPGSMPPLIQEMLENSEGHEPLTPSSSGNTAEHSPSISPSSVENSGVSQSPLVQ
Briefly: ligand binding assay, RARβ. As to conditions: Kd line of EC50/(EFFICACY)/Kd, read-out: RAR Kd β.
Source text: as §1
as §2, with “A detailed experimental procedure for holoreceptor transactivations has been described by Heyman et al. Cell 68, 397-406, (1992); Allegretto et al. J. Biol. Chem. 268, 26625-26633, and Mangelsdorf et al. The Retinoids: Biology, Chemistry and Medicine, pp 319-349, Raven Press Ltd., New York, which are expressly incorporated herein by reference.” left out

For another assay, the target named is T3, P450RAI-1 (Homo sapiens, UniProt O43174).
T3 construct: expressed in transfected cells; host or cells: HeLa cells, stably transfected, hygromycin selection
T3 sequence (O43174 1-497): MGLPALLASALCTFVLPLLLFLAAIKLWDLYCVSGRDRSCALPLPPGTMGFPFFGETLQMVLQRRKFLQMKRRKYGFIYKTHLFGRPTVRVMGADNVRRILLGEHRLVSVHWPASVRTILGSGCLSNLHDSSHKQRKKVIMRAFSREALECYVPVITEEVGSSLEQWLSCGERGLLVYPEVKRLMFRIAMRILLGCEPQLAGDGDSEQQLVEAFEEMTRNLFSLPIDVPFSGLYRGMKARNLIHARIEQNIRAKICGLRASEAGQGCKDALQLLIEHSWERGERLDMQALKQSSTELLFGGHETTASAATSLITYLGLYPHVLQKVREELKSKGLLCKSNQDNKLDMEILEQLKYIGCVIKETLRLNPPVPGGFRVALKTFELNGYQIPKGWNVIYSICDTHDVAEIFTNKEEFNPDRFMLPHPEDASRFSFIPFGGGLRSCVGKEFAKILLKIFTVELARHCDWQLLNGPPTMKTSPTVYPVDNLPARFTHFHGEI
The experiment in a line: P450RAI-1 cell-based inhibitor assay. As to conditions: P450RAI-1 stably transfected HeLa cells, [3H]-RA metabolism, 3 hours at 37° C.; read-out: P450RAI INHIBITION DATA INTACT HELA IC50. The protocol: P450RAI-1 stably transfected HeLa cells are maintained in […] tissue culture dishes in Modified Eagle's Medium (MEM) containing 10% Fetal Bovine Serum (FBS) and 100 μg/ml hygromycin. Exponentially growing cells are harvested by incubating in trypsin. Cells are then washed with 1× Phosphate Buffered Saline (PBS) and plated in a 48-well plate at 5×10^5 cells in 0.2 ml MEM medium containing 10% FBS and 0.05 μCi[^3H]-RA in the presence or absence of increasing concentrations of the test compounds. The compounds are diluted in 100% DMSO and then added in triplicate wells at either 10, 1 or 0.1 μM final concentration. As a positive control for RA metabolism inhibition, cells are also incubated with ketoconazole at 100, 10 and 1 μM. Cell are incubated for 3 hours at 37° C. […] The water soluble radioactivity is quantified using a β-scintillation counter. IC50 values represent the concentration of inhibitor required to inhibit all-trans-RA metabolism by 50 percent and are derived manually from log-transformed data.

A further assay addresses T4, RARα (Homo sapiens, UniProt P10276).
T4 sequence (P10276 1-462): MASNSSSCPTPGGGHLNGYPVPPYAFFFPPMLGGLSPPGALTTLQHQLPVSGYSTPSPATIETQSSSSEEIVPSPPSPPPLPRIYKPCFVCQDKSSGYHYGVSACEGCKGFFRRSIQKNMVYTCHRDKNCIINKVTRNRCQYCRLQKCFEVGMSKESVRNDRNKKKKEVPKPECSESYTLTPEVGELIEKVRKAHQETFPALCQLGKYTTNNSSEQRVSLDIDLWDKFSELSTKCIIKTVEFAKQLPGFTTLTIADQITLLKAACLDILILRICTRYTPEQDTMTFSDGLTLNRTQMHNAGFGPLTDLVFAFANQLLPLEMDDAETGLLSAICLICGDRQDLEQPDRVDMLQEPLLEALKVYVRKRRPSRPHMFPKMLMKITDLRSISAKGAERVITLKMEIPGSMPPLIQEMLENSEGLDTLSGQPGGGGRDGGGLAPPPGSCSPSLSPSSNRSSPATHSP
Briefly: ligand binding assay, RARα. As to conditions: Kd line of EC50/(EFFICACY)/Kd, read-out: RAR Kd α.
Source text: as §1, §2, §3

For the molecule `CCc1cc(C#Cc2ccc(CC(=O)O)cc2)ccc1C1(OCc2ccccc2)CC1` [Compound 94, {4-[4-(1-Benzyloxycyclopropyl)-3-ethyl-phenylethynyl]-phenyl}-acetic Acid], the Kd at RARγ, at RARβ and on RARα was over 10 µM each time. The concentration for half-maximal inhibition (IC50) (commonly the concentration at which inhibition is half-maximal) on P450RAI-1 was over 10000 nM.

`O=C(O)c1ccc(C#Cc2ccc(C3(OCc4ccccc4)CC3)cc2)cc1` [Compound 77, 4-[4-(1-Benzyloxycyclopropyl)-phenylethynyl]-benzoic Acid]: the equilibrium dissociation constant (Kd) (usually the equilibrium constant for the complex coming apart) worked out at 0.016 µM on RARγ, 0.225 µM on RARβ and 2.21 µM on RARα. At P450RAI-1, the IC50 was over 10000 nM.

In the case of `CC1(C)CC(C)(C)c2cc(C#Cc3ccc(C(=O)O)cc3)cc(C3CC3)c2O1` [Compound 34, 4-(8-Cyclopropyl-2,2,4,4-tetramethyl-chroman-6-yl-ethynyl)-benzoic Acid], the values for the equilibrium dissociation constant (Kd) on RARγ, on RARβ and on RARα were 0.0025 µM, 0.015 µM and 0.0615 µM, respectively. Also, the IC50 at P450RAI-1 turned out to be 130 nM.

Turning to `Cc1cc(C#Cc2ccc(CC(=O)O)cc2)ccc1C1(OCc2ccccc2)CC1` [Compound 82, {4-[4-(1-Benzyloxycyclopropyl)-3-methyl-phenylethynyl]-phenyl}-acetic Acid], the dissociation constant (Kd) at RARγ, at RARβ and on RARα was over 10 µM each time. At P450RAI-1, the IC50 was over 10000 nM.

Take `CC1(C)CC(C)(C)c2cc(C#Cc3ccc(CC(=O)O)c(F)c3)ccc2O1` [Compound 32, [2-Fluoro-4-(2,2,4,4-tetramethyl-chroman-6-yl-ethynyl)phenyl]acetic Acid]: the values for the Kd at RARγ, on RARβ and on RARα were 13 µM, 4.22 µM and 27 µM, respectively. Also, on P450RAI-1, the IC50 was 180 nM.

`CC1(C)CC(C)(C)c2cc(C#Cc3ccc(C(=O)O)c(F)c3)ccc2O1` [Compound 30, 2-Fluoro-4-(2,2,4,4-tetramethyl-chroman-6-yl-ethynyl)-benzoic Acid]: the Kd on RARγ was 0.084 µM; on RARβ it was 0.0022 µM; on RARα it was 0.014 µM. For the same molecule, the IC50 at P450RAI-1 is 280 nM.

As for `CC1(C)CC2(CC2)Oc2ccc(C#Cc3ccc(CC(=O)O)cc3)cc21` [Compound 42, Benzeneacetic Acid, 4-[(3,4-dihydro-4,4-dimethylspiro[2H-1-benzopyran-2,1′-cyclopropane]-6-yl)ethynyl]-], the Kd on RARγ was over 10 µM; on RARβ it was 3.64 µM; at RARα, 15 µM. Also, the IC50 on P450RAI-1 was determined as 190 nM.

In the case of `COC1(c2ccc(C#Cc3ccc(CC(=O)O)cc3)cc2)CC1` [Compound 70, {4-[4-(1-Methoxycyclopropyl)-phenylethynyl]-phenyl}-acetic Acid], the Kd on RARγ, at RARβ and at RARα was over 10 µM in each case. At P450RAI-1, the IC50 is over 10000 nM.

Take `CC(C)OC1(c2ccc(C#Cc3ccc(CC(=O)O)cc3)cc2)CC1` [Compound 74, {4-[4-(1-Isopropoxycyclopropyl)-phenylethynyl]-phenyl}-acetic Acid]: the Kd at RARγ is over 10 µM; on RARβ it was 14 µM; at RARα it was 11 µM. Moreover, the IC50 at P450RAI-1 was 3500 nM.

Regarding `CC1(C)CC(C)(C)c2cc(C#Cc3ccc(CC(=O)O)cc3)ccc2O1` [Compound 28, [4-(2,2,4,4-Tetramethyl-chroman-6-yl-ethynyl)phenyl]acetic Acid], the Kd at RARγ is over 10 µM; on RARβ, 4.27 µM; on RARα, 21 µM. On P450RAI-1, the IC50 turned out to be 340 nM.

Consider `Cc1cc(C#Cc2ccc(CC(=O)O)cc2)ccc1C1(OCC(C)(C)C)CC1` [Compound 90, {4-[4-[1-(2,2-Dimethylpropyloxy)-cyclopropyl]-3-methyl-phenylethynyl]-phenyl}-acetic Acid], for which the Kd at RARγ, at RARβ and on RARα was over 10 µM throughout. For the same molecule, the IC50 on P450RAI-1 stood at 950 nM.

With `O=C(O)Cc1ccc(C#Cc2ccc(C3(OCc4ccccc4)CC3)cc2)cc1` [Compound 78, {4-[4-(1-Benzyloxycyclopropyl)-phenylethynyl]-phenyl}-acetic Acid], the equilibrium dissociation constant (Kd) at RARγ, at RARβ and at RARα was over 10 µM each time. Besides, the IC50 at P450RAI-1 was over 10000 nM.

These data come from US6369225B1, “Compounds having activity as inhibitors of cytochrome P450RAI” (Allergan Sales, Inc., priority 2000, dated 2002).
